Assay results as given in patent US10280198B2, “Therapeutic agents for reducing parathyroid hormone levels” (KAI PHARMACEUTICALS, INC., priority 2009, dated 2019).
Square brackets hold non-standard residues; d marks the D form. Peptide text beside a SMILES is read from it.

What was measured:
[1] = system: rat peritoneal mast cells; experiment: In vitro histamine induction in rat peritoneal mast cells; assay type: cell-based
Procedure: To further evaluate the relationship between compound structure and histamine release, a series of compounds was prepared and assessed for their ability to trigger induction of histamine in an in vitro assay using rat peritoneal mast cells. In this assay, compounds are incubated at 10 μM for 15 minutes at 37° C. with cells isolated from peritoneal lavage of SD rats. Following incubation, cell medium is collected and histamine is determined.
Accordingly, and as can be appreciated in view of the PTH data and the histamine data described hereinabove, in one embodiment, a compound that has activity to decrease PTH level in a subject in the absence of a histamine response is contemplated. In certain embodiments, absence of a histamine response intends a dose of the compound that produces a less than 10-fold, more preferably 8-fold, still more preferably 5-fold, and even still more preferably 3-fold, increase in histamine, measured in vitro in an assay as described herein, where the fold change is determined based on histamine levels before incubation with the compound and after 15 minutes incubation with compound. In a specific embodiment, the histamine response is determined in an in vitro assay using rat peritoneal mast cells isolated from peritoneal lavage of normal Sprague Dawley rats, and where the fold change is determined based on histamine levels before incubation with the compound and after 15 minutes incubation with compound. In the studies conducted herein, the in vitro evaluation of histamine release was performed using isolated rat peritoneal mast cells isolated by peritoneal lavage using cold HBSS+25 mM HEPES pH 7.4 containing heparin (5 u/mL). Cells were washed twice in stimulation buffer (HBSS+25 mM HEPES pH 7.4) and incubated with 10 μM of compound in stimulation buffer (HBSS+25 mM HEPES pH 7.4) for 15 minutes in a 96-well plate ([…]) at 37° C. Cell supernatant was analyzed for histamine using histamine EIA kit (Cayman #589651).
For in vitro evaluation of histamine release, isolated rat peritoneal mast cells were isolated by performing peritoneal lavage using cold HBSS+25 mM HEPES pH 7.4 containing heparin (5 u/mL). Cells were washed twice in stimulation buffer (HBSS+25 mM HEPES pH 7.4) and incubated with 10 μM of compound in stimulation buffer (HBSS+25 mM HEPES pH 7.4) for 15 minutes in a 96-well plate (10^6/well) at 37° C. Cell supernatant was analyzed for histamine using histamine EIA kit (Cayman #589651).

plasma PTH = experiment: In vivo PTH lowering after IV bolus in isoflurane-anesthetized normal Sprague Dawley rats; parameters: species or system rat; conditions: for 0.5 mg/kg IV bolus % PTH AUC of saline control: normal rats, AUC 1-4 h
Procedure: The peptides were administered intravenously at a dose of 0.5 mg/kg into isoflurane-anesthetized normal Sprague Dawley rats. A control group of rats was treated with saline. Blood was drawn prior to dosing and every hour for 4 hours. Rats were maintained under isoflurane anesthesia for the entire study. […] Percent PTH reduction was calculated according to the following formula: AUCcmpd treated/AUCsaline control*100.
An intravenous (IV) bolus of saline was used as a control. Plasma (K2EDTA) PTH levels were assessed prior to dosing and 1, 2, 3 and 4 hours after dosing. Rats were maintained under isoflurane anesthesia for the entire study. […] In FIG. 2B, PTH is shown as percent of the baseline pre-dose value.
A series of compounds having an L-amino acid residue substituted for a D-amino acid residue were prepared. The compounds were administered as an IV bolus to normal Sprague Dawley rats at a dose of 0.5 mg/kg. An intravenous (IV) bolus of saline was used as a control. […] Rats were maintained under isoflurane anesthesia for the entire study.

Row | Compound | Histamine in vitro Fold change of non-treated at 10 uM [1] [fold] | 0.5 mg/kg IV bolus % PTH AUC of saline control (plasma PTH; Table 6) [%] | % PTH reduction of baseline at 1 hour post IV administration of 0.5 mg/kg compound (plasma PTH; Table 2, isoflurane-anesthetized normal rats, 0.5 mg/kg IV, 1 hour) [%] | 0.5 mg/kg IV bolus % PTH AUC of saline control (plasma PTH; Table 2) [%]
1 | CC(=O)N[C@H](CS)C(=O)N[C@H](C)C(=O)N[C@H](CCCNC(=N)N)C(=O)N[C@H](CCCNC(=N)N)C(=O)N[C@H](CCCNC(=N)N)C(=O)N[C@H](CCC(N)=O)C(=O)N[C@H](CCCNC(=N)N)C(N)=O [SEQ ID NO: 90, Ac-carrrqr-NH2] (Ac-[dC][dA][dR][dR][dR][dQ][dR]-NH2) | 0.9 | 41 |  | 
2 | CC(=O)N[C@H](CS)C(=O)N[C@H](C)C(=O)N[C@H](CCCNC(=N)N)C(=O)N[C@H](CCCNC(=N)N)C(=O)N[C@H](CCCNC(=N)N)C(=O)N[C@@H](C(=O)N[C@H](CCCNC(=N)N)C(N)=O)[C@H](C)O [SEQ ID NO: 91, Ac-carrrtr-NH2] (Ac-[dC][dA][dR][dR][dR][dT][dR]-NH2) | 1.7 | 18 |  | 
3 | CC(=O)N[C@H](CS)C(=O)N[C@H](C)C(=O)N[C@H](CCCNC(=N)N)C(=O)N[C@H](CCCNC(=N)N)C(=O)N[C@H](CCCNC(=N)N)C(=O)N[C@H](CO)C(=O)N[C@H](CCCNC(=N)N)C(N)=O [SEQ ID NO: 92, Ac-carrrsr-NH2] (Ac-[dC][dA][dR][dR][dR][dS][dR]-NH2) | 1.2 | 6 |  | 
4 | CC(=O)N[C@H](CS)C(=O)N[C@H](C)C(=O)N[C@H](CCCNC(=N)N)C(=O)N[C@H](CCCNC(=N)N)C(=O)N[C@H](CCCNC(=N)N)C(=O)N[C@H](Cc1ccccc1)C(=O)N[C@H](CCCNC(=N)N)C(N)=O [SEQ ID NO: 83, Ac-carrrfr-NH2] (Ac-[dC][dA][dR][dR][dR][dF][dR]-NH2) | 4.0 | 177 |  | 
5 | CC(=O)N[C@H](CS)C(=O)N[C@H](CCCNC(=N)N)C(=O)N[C@H](CCCNC(=N)N)C(=O)N[C@H](CCCNC(=N)N)C(=O)N[C@H](C)C(=O)N[C@H](C)C(=O)N[C@H](CCCNC(=N)N)C(N)=O [SEQ ID NO: 21, Ac-crrraar-NH2] (Ac-[dC][dR][dR][dR][dA][dA][dR]-NH2) | 1.0 |  | 36 | 50

The next lines start with results.

Row | Histamine in vitro Fold change of non-treated at 10 uM [1] [fold] | Compound | 0.5 mg/kg IV bolus % PTH AUC of saline control (plasma PTH; Table 6) [%] | % PTH reduction of baseline at 1 hour post IV administration of 0.5 mg/kg compound (plasma PTH; Table 2, isoflurane-anesthetized normal rats, 0.5 mg/kg IV, 1 hour) [%] | 0.5 mg/kg IV bolus % PTH AUC of saline control (plasma PTH; Table 2) [%]
6 | 1.1 | CC(=O)N[C@H](CS)C(=O)N[C@@H](C(=O)N[C@H](CCCNC(=N)N)C(=O)N[C@H](CCCNC(=N)N)C(=O)N[C@H](CCCNC(=N)N)C(=O)N[C@H](C)C(=O)N[C@H](CCCNC(=N)N)C(N)=O)[C@H](C)O [SEQ ID NO: 100, Ac-ctrrrar-NH2] (Ac-[dC][dT][dR][dR][dR][dA][dR]-NH2) | 23 |  | 
7 | 1.2 | CC(=O)N[C@H](CS)C(=O)N[C@H](CCCNC(=N)N)C(=O)N[C@H](CCCNC(=N)N)C(=O)N[C@@H](C(=O)N[C@H](CCCNC(=N)N)C(=O)N[C@H](C)C(=O)N[C@H](CCCNC(=N)N)C(N)=O)[C@H](C)O [SEQ ID NO: 108, Ac-crrtrar-NH2] (Ac-[dC][dR][dR][dT][dR][dA][dR]-NH2) | 13 |  | 
8 | 2.0 | CC(=O)N[C@H](CS)C(=O)N[C@H](CCCNC(=N)N)C(=O)N[C@H](CCCNC(=N)N)C(=O)N[C@H](CO)C(=O)N[C@H](CCCNC(=N)N)C(=O)N[C@H](C)C(=O)N[C@H](CCCNC(=N)N)C(N)=O [SEQ ID NO: 111, Ac-crrsrar-NH2] (Ac-[dC][dR][dR][dS][dR][dA][dR]-NH2) | 4 |  | 
9 | 3.4 | CC[C@@H](C)[C@@H](NC(=O)[C@@H](CCCNC(=N)N)NC(=O)[C@@H](CCCNC(=N)N)NC(=O)[C@@H](CS)NC(C)=O)C(=O)N[C@H](CCCNC(=N)N)C(=O)N[C@H](C)C(=O)N[C@H](CCCNC(=N)N)C(N)=O [SEQ ID NO: 115, Ac-crrirar-NH2] (Ac-[dC][dR][dR][dI][dR][dA][dR]-NH2) | 0 |  | 
